{
  "source": "paper PMC11111035",
  "about": "“Lemon basil seed-derived peptide: Hydrolysis, purification, and its role as a pancreatic lipase inhibitor that reduces adipogenesis by downregulating SREBP-1c and PPAR-γ in 3T3-L1 adipocytes” (PLOS ONE, 2024)",
  "key": {"[1]": {"test_system": "3T3-L1 adipocytes", "assay": "Intracellular lipid accumulation, Oil Red O staining", "format": "cell-based", "settings": "simvastatin 10 μM (S); % of differentiated model (100%); mean ± SE", "description": "On the first day, a modified assay proposed by Zhang et al. was carried out for the purpose of 3T3-L1 cells cell culture and differentiation, by initially seeding the 3T3-L1 preadipocyte cells in 6-well plates with a density of 1×10^5 cells per well and then culturing in DMEM with 10% FBS at a temperature of 37°C for 24 h in an atmosphere of 5% carbon dioxide. On the second day, adipocyte differentiation was performed by treating the 3T3-L1 cells with a differentiation medium comprising DMEM with 10% FBS, mixed with 0.5 mM 3-isobutyl-1-methylxanthine (IBMX), 1 μM dexamethasone, and 10 μg/mL insulin. This process took three days, whereupon on day 5 the original medium was removed and a new insulin medium, comprising DMEM with 10% FBS and 10 μg/mL insulin, was used to maintain adipocyte characteristics with a 3-day incubation period. […] Oil Red O staining was then used to evaluate the intracellular lipid accumulation of the mature 3T3-L1 adipocytes. This process required the cells to first be rinsed in PBS and then fixed for 1 h at room temperature with 10% formalin. […] It was then possible to evaluate the accumulation of lipids by dissolving in isopropanol (100%), and to measure the absorbance at 540 nm. The lipid accumulation was expressed as a percentage in comparison to the control."}, "[2]": {"test_system": "AMPK-α", "assay": "Western blot AMPK-α expression", "format": "cell-based", "settings": "GRSPDTHSG 0.25-1 mM or simvastatin 10 μM", "description": "On the first day, a modified assay proposed by Zhang et al. was carried out for the purpose of 3T3-L1 cells cell culture and differentiation, by initially seeding the 3T3-L1 preadipocyte cells in 6-well plates with a density of 1×10^5 cells per well and then culturing in DMEM with 10% FBS at a temperature of 37°C for 24 h in an atmosphere of 5% carbon dioxide. On the second day, adipocyte differentiation was performed by treating the 3T3-L1 cells with a differentiation medium comprising DMEM with 10% FBS, mixed with 0.5 mM 3-isobutyl-1-methylxanthine (IBMX), 1 μM dexamethasone, and 10 μg/mL insulin. This process took three days, whereupon on day 5 the original medium was removed and a new insulin medium, comprising DMEM with 10% FBS and 10 μg/mL insulin, was used to maintain adipocyte characteristics with a 3-day incubation period. […] Once extracted, the proteins of equivalent concentration underwent separation on 12% sodium dodecyl sulfate-polyacrylamide gel electrophoresis (SDS-PAGE) before moving to polyvinylidene fluoride (PVDF) membranes (Millipore, Bedford, MA, USA). […] The membranes were then incubated overnight at a temperature of 4°C with the primary antibodies (PPAR-γ, AMPK-α, SREBP-1C and β-actin) diluted at 1:1000. […] The band intensity could then be measured using ImageJ software (version 1.53; National Institutes of Health, MD, USA). […]"}, "[3]": {"test_system": "3T3-L1 cells", "settings": "cited from earlier work", "description": "Although we believe there have been no previous studies detailing the […] peptide, it can be considered as a suitable novel peptide capable of addressing the problem of obesity. The literature does contain references to peptides which act in a similar manner to affect preadipocytes during their initial proliferation. […] It was noted by Zhang et al. that th ..."}, "[4]": {"target": "T1, porcine pancreatic lipase (Sus scrofa, UniProt P00591)", "T1 sequence (P00591 1-450)": "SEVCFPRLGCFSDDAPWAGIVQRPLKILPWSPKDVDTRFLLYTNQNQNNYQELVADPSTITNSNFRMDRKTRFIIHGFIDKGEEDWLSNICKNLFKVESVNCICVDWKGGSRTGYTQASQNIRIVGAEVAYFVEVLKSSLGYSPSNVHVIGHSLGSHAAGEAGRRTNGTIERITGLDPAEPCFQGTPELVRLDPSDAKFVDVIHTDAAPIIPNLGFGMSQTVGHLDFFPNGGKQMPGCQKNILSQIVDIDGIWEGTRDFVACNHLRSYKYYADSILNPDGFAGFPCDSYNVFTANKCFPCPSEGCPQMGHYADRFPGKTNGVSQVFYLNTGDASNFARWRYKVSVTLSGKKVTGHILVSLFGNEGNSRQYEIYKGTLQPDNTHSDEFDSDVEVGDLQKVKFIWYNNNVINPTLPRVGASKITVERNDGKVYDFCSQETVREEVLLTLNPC", "assay": "Lipase inhibitory activity (LI), pNPP substrate", "format": "biochemical", "settings": "synthetic peptide, pH 7.0, 37°C, 30 min", "description": "(§1) The determination of lipase inhibition was performed using a method with slight modifications as described by Ketprayoon et al.. The p-nitrophenyl palmitate (pNPP) was served as the substrate, with a solution containing 30 mg of pNPP dissolved in 10 mL of isopropanol. This pNPP solution was then emulsified by combining it with 90 mL of 50 mM Tris-HCl at pH 7.0, 20 μL of Triton X-100 and 100 mg of gum arabic. The assay was initiate the assay by incubating the porcine pancreatic lipase (0.5 mg/mL in 50 mM Tris‐HCl buffer, pH 7.0), pNPP solution and DLSH peptides at a temperature of 37°C for 30 min. Absorbance was then measured at 410 nm for p-nitrophenol with Orlistat employed as the positive control. […] LI=AN−AP×100/AN (3) in which AN indicates the absorbance of the negative control in the absence of the peptide, whereas AP indicates the absorbance of activity when the peptide is present."}, "[5]": {"test_system": "3T3-L1 cells", "assay": "MTT cell viability", "format": "cell-based", "settings": "72 h, mean ± SE (n = 3), ns", "description": "Following incubation, each well received 10 μL of MTT solution (5 mg/mL), before a further 4 h of incubation at a temperature of 37°C. Then 100 μL of DMSO was added to dissolve the MTT-formazan crystals in the viable cells before measuring the absorbance at 540 nm."}, "[6]": {"target": "T1, porcine pancreatic lipase", "assay": "Kinetic study of lipase inhibition (Lineweaver-Burk, Dixon plot)", "format": "biochemical", "settings": "non-competitive, pNPP, 37°C, pH 7.0, 30 min, mean ± SE (n = 3), read-out: Inhibition constant (Ki)", "description": "as §1\nThe inhibitory mechanism of the lipase inhibitor was investigated using the Lineweaver-Burk plot. […] The reaction mixtures were incubated under a temperature of 37°C and pH 7.0 for 30 min, while initial velocity rates were determined at different substrate concentrations (0.1, 0.2, 0.3, 0.4, and 0.5 mM). […] The Michaelis-Menten constant (Km) and maximum velocity (Vmax) for the lipase inhibition were determined by analyzing the intercepts on the x-axis and y-axis, respectively. […]"}, "[7]": {"test_system": "lipase", "settings": "cited from earlier work", "description": "The Lineweaver-Burk plot was used to evaluated the inhibition mode of the […] peptide obtained from DLSH, and the outcome can be observed in Fig 6(A) (S6 Table). The plot of the inhibition activity was created by altering the concentration of the substrate while maintaining the peptide concentration at the same level throughout (0, 0.1, 0.3 and 0.5 mM). […] The peptide accordingly acted as a lipase inhibitor by taking the form o ..."}},
  "note": "Ends that are not written are not given here.",
  "data": [
    {"compound": "CCC(C)(C)C(=O)O[C@H]1C[C@@H](C)C=C2C=C[C@H](C)[C@H](CC[C@@H]3C[C@@H](O)CC(=O)O3)[C@H]21", "note": "[Simvastatin, simvastatin]", "values": [
      {"measurement": "Lipid accumulation", "setting": "[1]", "value": "51.66 ± 1.81", "unit": "%"},
      {"measurement": "AMPK expression, in words", "setting": "[2]", "value": "AMPK expression level rose"}
    ]},
    {"compound": "CANPHELPNK [peptide from Spirulina platensis protein, pepsin digestion]", "values": [
      {"measurement": "Triglyceride accumulation", "setting": "[3]", "value": "potentially limiting triglyceride accumulation"}
    ]},
    {"compound": "DIVDKIEI [peptide derived from extract of boiled tuna]", "values": [
      {"measurement": "3T3-L1 preadipocyte differentiation", "setting": "[3]", "value": "effective in inhibiting 3T3-L1 preadipocyte differentiation"},
      {"measurement": "Triglyceride levels and glucose uptake", "setting": "[3]", "value": "lowering both triglyceride levels and the uptake of glucose"}
    ]},
    {"compound": "GAGVGY [GAGVGY]", "values": [
      {"measurement": "Glucose transport and lipid metabolism", "setting": "[3]", "value": "enhance the transport of glucose and support the lipid metabolism in 3T3-L1 adipocytes"}
    ]},
    {"compound": "GRSPDTHSG", "values": [
      {"measurement": "IC50", "setting": "[4]", "value": 255, "unit": "µM"},
      {"measurement": "Cell viability", "setting": "[5]; 0.25 mM", "value": "97.02 ± 4.65", "unit": "%"},
      {"measurement": "Cell viability", "setting": "[5]; 0.50 mM", "value": "92.90 ± 1.60", "unit": "%"},
      {"measurement": "Cell viability", "setting": "[5]; 1.00 mM", "value": "85.96 ± 2.05", "unit": "%"},
      {"measurement": "Ki", "setting": "[6]", "value": "610 ± 90", "unit": "µM"}
    ]},
    {"compound": "LLVVYPWTQR [synthetic decapeptide derived from C. pyenoidose]", "values": [
      {"measurement": "Intracellular lipid accumulation", "setting": "[3]; 600 μg/mL, reduced", "value": 27.91, "unit": "%"}
    ]},
    {"compound": "NPVWKRK [peptide from Spirulina platensis protein, pepsin digestion]", "values": [
      {"measurement": "Triglyceride accumulation", "setting": "[3]", "value": "potentially limiting triglyceride accumulation"}
    ]},
    {"compound": "glutathione", "values": [
      {"measurement": "Mode of lipase inhibition", "setting": "[7]", "value": "non-competitive inhibition"}
    ]}
  ]
}
